# Experimental data: PubChem BioAssay (NCI)
#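 Compound exposure: 48 hours, 5 concentrations, 96-well plates. At the GI50, growth is halved. Definition used: TGI = concentration required for complete inhibition of growth.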
# Experiments:
# Assay in all cases: growth of human tumour cells (NCI), 48 h
# 786-0 renal = system: 786-0 renal
# A498 renal = system: A498 renal
# A549 NSCLC = system: A549 NSCLC
# ACHN renal = system: ACHN renal
# BT-549 breast = system: BT-549 breast
# CAKI-1 renal = system: CAKI-1 renal
# CCRF-CEM leukemia = system: CCRF-CEM leukemia
# DU-145 prostate = system: DU-145 prostate
# EKVX NSCLC = system: EKVX NSCLC
# HCC-2998 colon = system: HCC-2998 colon
# HCT-116 colon = system: HCT-116 colon
# HCT-15 colon = system: HCT-15 colon
# HL-60(TB) leukemia = system: HL-60(TB) leukemia
# HOP-62 NSCLC = system: HOP-62 NSCLC
# HOP-92 NSCLC = system: HOP-92 NSCLC
# HS 578T breast = system: HS 578T breast
# HT29 colon = system: HT29 colon
# IGROV1 ovarian = system: IGROV1 ovarian
# K-562 leukemia = system: K-562 leukemia
# KM12 colon = system: KM12 colon
# LOX IMVI melanoma = system: LOX IMVI melanoma
# M14 melanoma = system: M14 melanoma
# MALME-3M melanoma = system: MALME-3M melanoma
# MCF7 breast = system: MCF7 breast
# MDA-MB-231 breast = system: MDA-MB-231 breast
# MDA-MB-435 = system: MDA-MB-435
# MOLT-4 leukemia = system: MOLT-4 leukemia
# NCI-H23 lung = system: NCI-H23 lung
# NCI-H460 lung = system: NCI-H460 lung
# NCI-H522 lung = system: NCI-H522 lung
# NCI/ADR-RES ovarian = system: NCI/ADR-RES ovarian
# OVCAR-3 ovarian = system: OVCAR-3 ovarian
# OVCAR-4 ovarian = system: OVCAR-4 ovarian
# OVCAR-5 ovarian = system: OVCAR-5 ovarian
# OVCAR-8 ovarian = system: OVCAR-8 ovarian
# PC-3 prostate = system: PC-3 prostate
# RPMI-8226 leukemia = system: RPMI-8226 leukemia
# RXF 393 renal = system: RXF 393 renal
# SF-268 CNS = system: SF-268 CNS
# SF-295 CNS = system: SF-295 CNS
# SF-539 CNS = system: SF-539 CNS
# SK-MEL-2 melanoma = system: SK-MEL-2 melanoma
# SK-MEL-28 melanoma = system: SK-MEL-28 melanoma
# SK-MEL-5 melanoma = system: SK-MEL-5 melanoma
# SN12C renal = system: SN12C renal
# SNB-19 CNS = system: SNB-19 CNS
# SNB-75 CNS = system: SNB-75 CNS
# SR leukemia = system: SR leukemia
# SW-620 colon = system: SW-620 colon
# T-47D breast = system: T-47D breast
# TK-10 renal = system: TK-10 renal
# U251 CNS = system: U251 CNS
# UACC-257 melanoma = system: UACC-257 melanoma
# UACC-62 melanoma = system: UACC-62 melanoma
# UO-31 renal = system: UO-31 renal
smiles,measurement,setting,value
CN(C)CC(=O)Nc1ccc2ncnc(Nc3ccc(Oc4cccc(C(F)(F)F)c4)c(Cl)c3)c2c1,GI50,786-0 renal,1.55 µM
same,TGI,786-0 renal,2.91 µM
same,GI50,A498 renal,1.62 µM
same,TGI,A498 renal,4.92 µM
same,GI50,A549 NSCLC,2.82 µM
same,TGI,A549 NSCLC,10.2 µM
same,GI50,ACHN renal,1.13 µM
same,TGI,ACHN renal,2.49 µM
same,GI50,BT-549 breast,3.91 µM
same,TGI,BT-549 breast,17.3 µM
same,GI50,CAKI-1 renal,1.71 µM
same,TGI,CAKI-1 renal,7.54 µM
same,GI50,CCRF-CEM leukemia,2.52 µM
same,TGI,CCRF-CEM leukemia,10.4 µM
same,GI50,DU-145 prostate,2.13 µM
same,TGI,DU-145 prostate,6.78 µM
same,GI50,EKVX NSCLC,1.7 µM
same,TGI,EKVX NSCLC,8.05 µM
same,GI50,HCC-2998 colon,1.66 µM
same,TGI,HCC-2998 colon,3.19 µM
same,GI50,HCT-116 colon,1.65 µM
same,TGI,HCT-116 colon,3.03 µM
same,GI50,HCT-15 colon,1.48 µM
same,TGI,HCT-15 colon,3.1 µM
same,GI50,HL-60(TB) leukemia,2.09 µM
same,TGI,HL-60(TB) leukemia,4.94 µM
same,GI50,HOP-62 NSCLC,2.09 µM
same,TGI,HOP-62 NSCLC,5.71 µM
same,GI50,HOP-92 NSCLC,1.27 µM
same,TGI,HOP-92 NSCLC,3.55 µM
same,GI50,HS 578T breast,1.78 µM
same,TGI,HS 578T breast,4.58 µM
same,GI50,HT29 colon,1.72 µM
same,TGI,HT29 colon,4.08 µM
same,GI50,IGROV1 ovarian,1.17 µM
same,TGI,IGROV1 ovarian,3.03 µM
same,GI50,K-562 leukemia,2.21 µM
same,TGI,K-562 leukemia,6.52 µM
same,GI50,KM12 colon,1.91 µM
same,TGI,KM12 colon,4 µM
same,GI50,LOX IMVI melanoma,1.73 µM
same,TGI,LOX IMVI melanoma,3.13 µM
same,GI50,M14 melanoma,1.46 µM
same,TGI,M14 melanoma,2.85 µM
same,GI50,MALME-3M melanoma,1.68 µM
same,TGI,MALME-3M melanoma,3.36 µM
same,GI50,MCF7 breast,1.53 µM
same,TGI,MCF7 breast,3.02 µM
same,GI50,MDA-MB-231 breast,1.54 µM
same,TGI,MDA-MB-231 breast,3.29 µM
same,GI50,MDA-MB-435,1.66 µM
same,TGI,MDA-MB-435,3.14 µM
same,GI50,MOLT-4 leukemia,2.14 µM
same,TGI,MOLT-4 leukemia,6.36 µM
same,GI50,NCI-H23 lung,3.79 µM
same,TGI,NCI-H23 lung,14.8 µM
same,GI50,NCI-H460 lung,1.76 µM
same,TGI,NCI-H460 lung,3.45 µM
same,GI50,NCI-H522 lung,1.8 µM
same,TGI,NCI-H522 lung,5.37 µM
same,GI50,NCI/ADR-RES ovarian,3.06 µM
same,TGI,NCI/ADR-RES ovarian,13.2 µM
same,GI50,OVCAR-3 ovarian,1.61 µM
same,TGI,OVCAR-3 ovarian,3.51 µM
same,GI50,OVCAR-4 ovarian,1.96 µM
same,TGI,OVCAR-4 ovarian,5.83 µM
same,GI50,OVCAR-5 ovarian,3.04 µM
same,TGI,OVCAR-5 ovarian,12.9 µM
same,GI50,OVCAR-8 ovarian,3.24 µM
same,TGI,OVCAR-8 ovarian,13.1 µM
same,GI50,PC-3 prostate,1.82 µM
same,TGI,PC-3 prostate,4.5 µM
same,GI50,RPMI-8226 leukemia,1.9 µM
same,TGI,RPMI-8226 leukemia,5.51 µM
same,GI50,RXF 393 renal,1.61 µM
same,TGI,RXF 393 renal,3.25 µM
same,GI50,SF-268 CNS,1.97 µM
same,TGI,SF-268 CNS,5.44 µM
same,GI50,SF-295 CNS,2.02 µM
same,TGI,SF-295 CNS,4.28 µM
same,GI50,SF-539 CNS,1.73 µM
same,TGI,SF-539 CNS,3.18 µM
same,GI50,SK-MEL-2 melanoma,2.04 µM
same,TGI,SK-MEL-2 melanoma,4.37 µM
same,GI50,SK-MEL-28 melanoma,1.74 µM
same,TGI,SK-MEL-28 melanoma,3.22 µM
same,GI50,SK-MEL-5 melanoma,1.69 µM
same,TGI,SK-MEL-5 melanoma,3.09 µM
same,GI50,SN12C renal,2.85 µM
same,TGI,SN12C renal,10.5 µM
same,GI50,SNB-19 CNS,3.34 µM
same,TGI,SNB-19 CNS,14.4 µM
same,GI50,SNB-75 CNS,1.33 µM
same,TGI,SNB-75 CNS,2.82 µM
same,GI50,SR leukemia,2.46 µM
same,TGI,SR leukemia,9.15 µM
same,GI50,SW-620 colon,1.66 µM
same,TGI,SW-620 colon,3.3 µM
same,GI50,T-47D breast,1.31 µM
same,TGI,T-47D breast,3.74 µM
same,GI50,TK-10 renal,1.71 µM
same,TGI,TK-10 renal,5.03 µM
same,GI50,U251 CNS,1.79 µM
same,TGI,U251 CNS,3.99 µM
same,GI50,UACC-257 melanoma,2.05 µM
same,TGI,UACC-257 melanoma,4.25 µM
same,GI50,UACC-62 melanoma,1.91 µM
same,TGI,UACC-62 melanoma,3.69 µM
same,GI50,UO-31 renal,0.951 µM
same,TGI,UO-31 renal,2.32 µM
